From ChEMBL document CHEMBL1130585, “New antifungals selected by molecular topology” (1998) come the findings set out here.

Converted amounts (≈) assume the structure as drawn. The source made the active and inactive calls. The rule behind the calls is not given here.

Assay [1] relates to Candida albicans. The assay is described as follows: Compound was evaluated for inhibitory activity against Candida albicans; IA= Inactive. Type of assay: functional, organism-based.
The subject of assay [2] is Saccharomyces cerevisiae. The assay is described as follows: Compound was evaluated for inhibitory activity against Saccharomyces cerevisiae; IA = Inactive. Type of assay: functional, organism-based.
Assay [3] has as its system Saccharomyces cerevisiae. The assay is described as follows: Compound was evaluated for inhibitory activity against Saccharomyces cerevisiae; 3.2-4. Format: functional.
In assay [4] the test system is Candida albicans. Description: Compound was evaluated for inhibitory activity against Candida albicans; 3.2-4. Type of assay: functional.
Assay [5] relates to Candida albicans. Description: Compound was evaluated for inhibitory activity against Candida albicans. Format: functional.
The test system of assay [6] is Saccharomyces cerevisiae. Description: Compound was evaluated for inhibitory activity against Saccharomyces cerevisiae. Format: functional.
Assay [7] relates to Candida albicans. The assay is described as follows: Compound was evaluated for inhibitory activity against Candida albicans; 4-6.4. Format: functional.
The subject of assay [8] is Saccharomyces cerevisiae. The assay is described as follows: Compound was evaluated for inhibitory activity against Saccharomyces cerevisiae; 4-6.4. Format: functional.
For assay [9], the system named is Candida albicans. The assay is described as follows: Compound was evaluated for inhibitory activity against Candida albicans; 2-3.2. Format: functional.
Assay [10] concerns Saccharomyces cerevisiae. Description: Compound was evaluated for inhibitory activity against Saccharomyces cerevisiae; 2-3.2. Format: functional.
Assay [11] deals with Saccharomyces cerevisiae. The assay is described as follows: Compound was evaluated for inhibitory activity against Saccharomyces cerevisiae; IA= Inactive. Type of assay: functional, organism-based.
The subject of assay [12] is Candida albicans. The assay is described as follows: microbe, parasite or virus in culture.
Assay [13] deals with Saccharomyces cerevisiae. The assay is described as follows: microbe, parasite or virus in culture.

With `Cc1c(Cc2c(C)n(C)n(-c3ccccc3)c2=O)c(=O)n(-c2ccccc2)n1C`, the MIC result in the assay with Candida albicans [1] and with Saccharomyces cerevisiae [2] was “inactive” each time.
As to `CCC(=O)O` [PROPIONIC ACID], the MIC against Saccharomyces cerevisiae [3] and in the assay on Candida albicans [4] was 3.2 µg/mL (≈ 43.2 µM) throughout.
Consider `[Cl-].[Cl-].c1ccc(-c2nn(-c3ccccc3)[n+](-c3ccc(-c4ccc(-[n+]5nc(-c6ccccc6)nn5-c5ccccc5)cc4)cc3)n2)cc1` [NEOTETRAZOLIUM CHLORIDE], for which the MIC in the assay with Candida albicans [5] and against Saccharomyces cerevisiae [6] was below 1.6 µg/mL throughout.
Take `BrC1[C@H]2C[C@@H]3C[C@@H](C[C@H]1C3)C2` (some centres undefined): the MIC against Candida albicans [7] and against Saccharomyces cerevisiae [8] was 4 µg/mL (≈ 18.6 µM) throughout.
As for `Oc1c(I)cc(I)c2cccnc12`, the MIC result in the assay on Candida albicans [1] and in the assay with Saccharomyces cerevisiae [2] was “inactive” each time.
Regarding `O=C(Nc1ccccc1)c1ccccc1O` [SALICYLANILIDE], the MIC in the assay with Candida albicans [9] and against Saccharomyces cerevisiae [10] was 2 µg/mL (≈ 9.38 µM) in each case.
With `Brc1sc(Br)c(Br)c1Br`, the MIC result in the assay with Candida albicans [1] and in the assay with Saccharomyces cerevisiae [11] was “inactive” throughout.
Take `BrCCc1c[nH]c2ccccc12`: the MIC in the assay with Candida albicans [9] and in the assay with Saccharomyces cerevisiae [10] was 2 µg/mL (≈ 8.92 µM) in each case.
For `CC1(CBr)C2CCC1(CBr)C(=O)C2` (centres undefined), the MIC result in the assay on Candida albicans [1] and with Saccharomyces cerevisiae [11] was “inactive” each time.
In the case of `O=c1sc2sc(=O)sc2s1`, the MIC with Candida albicans [9] and in the assay on Saccharomyces cerevisiae [10] was 2 µg/mL (≈ 9.6 µM) in each case.
Take `Clc1ccc(COC(Cn2ccnc2)c2ccc(Cl)cc2Cl)c(Cl)c1` (centres undefined) [MICONAZOLE]: the MIC is below 1.6 µg/mL against Candida albicans [5], below 1.6 µg/mL against Saccharomyces cerevisiae [6], 1.6 µg/mL (≈ 3.84 µM) in the assay with Candida albicans [12] and 1.6 µg/mL (≈ 3.84 µM) with Saccharomyces cerevisiae [13].
